Biological target: T1, BtubA*B (Prosthecobacter dejongeii, UniProt A0A7W7YIU5+A0A7W7YJ10, A0A7W7YIU5:R284G/A0A7W7YIU5:K286D/A0A7W7YIU5:F287G)
T1 construct: gene HNQ64_001272; BtubA M-loop triple mutant coexpressed with BtubB in E. coli C41(DE3); no tag mentioned; single protofilament polymer; Methods once print R286D instead of K286D
T1 sequence (A0A7W7YIU5 1-473 R284G/K286D/F287G): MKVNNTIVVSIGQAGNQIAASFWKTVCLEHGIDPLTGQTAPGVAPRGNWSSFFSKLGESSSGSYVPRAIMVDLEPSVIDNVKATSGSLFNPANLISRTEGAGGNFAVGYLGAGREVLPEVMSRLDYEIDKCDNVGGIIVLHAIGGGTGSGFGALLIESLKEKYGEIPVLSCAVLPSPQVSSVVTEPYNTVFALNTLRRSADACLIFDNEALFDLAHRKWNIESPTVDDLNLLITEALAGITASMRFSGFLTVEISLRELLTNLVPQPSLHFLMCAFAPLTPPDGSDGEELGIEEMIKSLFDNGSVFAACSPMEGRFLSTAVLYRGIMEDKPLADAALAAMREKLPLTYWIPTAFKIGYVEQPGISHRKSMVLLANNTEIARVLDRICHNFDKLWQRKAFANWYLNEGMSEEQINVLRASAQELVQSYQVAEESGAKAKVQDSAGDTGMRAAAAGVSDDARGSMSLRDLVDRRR
T1 sequence (A0A7W7YJ10 1-426): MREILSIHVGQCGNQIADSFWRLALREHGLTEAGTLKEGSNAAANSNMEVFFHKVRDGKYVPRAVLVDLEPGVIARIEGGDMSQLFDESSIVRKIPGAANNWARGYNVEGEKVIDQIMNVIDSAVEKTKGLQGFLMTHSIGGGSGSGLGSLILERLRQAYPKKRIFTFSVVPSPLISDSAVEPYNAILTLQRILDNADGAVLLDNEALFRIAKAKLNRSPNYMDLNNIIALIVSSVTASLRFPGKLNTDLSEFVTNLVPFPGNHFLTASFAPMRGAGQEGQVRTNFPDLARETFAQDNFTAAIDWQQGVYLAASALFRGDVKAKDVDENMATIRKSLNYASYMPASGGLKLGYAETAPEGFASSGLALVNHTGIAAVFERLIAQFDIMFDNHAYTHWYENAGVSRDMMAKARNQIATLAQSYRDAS
Assay: polymerization seen by cryo-EM (~[…] Å map)
Format: biochemical
Conditions: 5 mM GTP, 5 mM magnesium acetate, pH 7.7, 20 °C; nucleotide not resolved

## Nc1nc2c(ncn2[C@@H]2O[C@H](COP(=O)(O)OP(=O)(O)OP(=O)(O)O)[C@@H](O)[C@H]2O)c(=O)[nH]1 [GTP]
  polymerization seen by cryo-EM (~8 Å map): BtubA*B polymerizes in the presence of GTP and GMPCPP to form straight single protofilaments
